Results as given in US12102659B2, “Methods for the prevention or treatment of heart failure” (Cornell University, priority 2009, dated 2024).
Square brackets hold non-standard residues; d marks the D form. Ends that are not written are not given here.

Tests used:
[1] = system: several mammalian cell types; conditions: energy-independent manner; cited from earlier work
mu-opioid receptor = mu-opioid receptor (Homo sapiens, UniProt P35372); test: mu-opioid receptor agonist activity (stated, no method); type: biochemical; conditions: stated in the description, no test described
Chain of mu-opioid receptor (P35372 whole entry, species assumed): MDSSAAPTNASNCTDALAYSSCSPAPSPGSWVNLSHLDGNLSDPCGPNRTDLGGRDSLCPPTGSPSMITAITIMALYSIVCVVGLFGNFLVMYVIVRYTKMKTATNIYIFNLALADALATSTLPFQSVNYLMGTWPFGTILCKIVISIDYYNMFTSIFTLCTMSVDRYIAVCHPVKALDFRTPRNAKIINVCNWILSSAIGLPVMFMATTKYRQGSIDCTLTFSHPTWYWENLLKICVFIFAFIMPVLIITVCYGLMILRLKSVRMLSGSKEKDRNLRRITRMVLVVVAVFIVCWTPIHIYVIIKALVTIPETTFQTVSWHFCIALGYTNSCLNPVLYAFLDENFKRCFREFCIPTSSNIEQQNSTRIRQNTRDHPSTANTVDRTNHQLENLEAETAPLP

neonatal cardiomyocytes = test: Mitosox flow cytometry of mitochondrial ROS in neonatal cardiomyocytes stimulated with Ang II; type: cell-based, mouse; conditions: for effect on Ang II-induced Mitosox fluorescence / mitochondrial ROS: SS-31 1 nM or NAC 0.5 mM together with Ang II 1 μM for 3 hours
Protocol: Neonatal mouse cardiomyocyte culture and flow cytometry. Ventricles from mouse neonates younger than 72 hours were dissected, minced, and enzymatically digested with Blendzyme 4 (45 μg/ml, Roche). After enzymatic digestion, cardiomyocytes were enriched using differential pre-plating for 2 hours, then seeded on fibronectin-coated culture dishes for 24 hours in DMEM (Gibco), with 20% Fetal Bovine Serum (Sigma) and 25 μM Arabinosylcytosine (Sigma). Cardiomyocytes were stimulated with Angiotensin II (1 μM) for 3 hours in serum-free DMEM containing 0.5% insulin transferrin-selenium (Sigma), 2 mM glutamine, and 1 mg/ml of BSA. Cardiomyocytes were simultaneously treated with either of the following: SS-31 (1 nM), N-acetyl cysteine (NAC: 0.5 mM), or PBS control. To measure mitochondrial superoxide concentration, Mitosox (5 μM) was incubated for 30 min at 37° C. to load cardiomyocytes, followed by 2 washes, with Hanks Balanced Salt Solution. Samples were analyzed using excitation/emission of 488/625 nm by flow cytometry. Flow data was analyzed using FCS Express (De Novo Software, Los Angeles, CA), and presented as histogram distributions of Mitosox fluorescence intensity.

C57BL6 mice [2] = test: Blood pressure by intravascular telemetry after pressor dose of Ang II; type: in vivo, mouse
Protocol: (§1) Mouse experiments, drug delivery, echocardiography and blood pressure measurement. All animal experiments were approved by the University of Washington Institutional Animal Care and Use Committee. C57BL6 mice were housed in a barrier specific pathogen-free facility. Six to ten mice were included in each experimental group (Saline, Ang II, Ang II+SS-31, WT, Gαq, Gαq+SS-31). A pressor dose of Ang II (1.1 mg/kg/d) was continuously administered for 4 weeks using subcutaneous Alzet 1004 osmotic minipumps, with or without addition of SS-31 (3 mg/kg/d). Echocardiography was performed at baseline and after 4 weeks of pump implantation using a Siemens Acuson CV-70 equipped with a 13 MHz probe. Under 0.5% isoflurane to reduce agitation, standard M-mode, conventional and Tissue Doppler images were taken, and functional calculations were performed according to American Society of Echocardiography guidelines. MP1 was calculated as the ratio of the sum of isovolemic contraction and relaxation time to LV ejection time. An increase in MPI is an indication that a greater fraction of systole is spent to cope with the pressure changes during the isovolemic phases. As a reference for SS-31 peptide effect in Ang II treated mice, a genetic mouse model of Rosa-26 inducible-mCAT was included, in which mitochondrial catalase was overexpressed two weeks before Ang II treatment.
Blood pressure was measured in a separate group of mice by telemetry using an intravascular catheter PA-C10 (DSI, MN), in which measurement was performed every three hours starting from 2 days before pump placement until 2 days after Ang pump placement.

C57BL6 mice [3] = test: Ang II-induced cardiomyopathy: echocardiography and heart weight after 4 weeks; type: in vivo, mouse; conditions: for Ea/Aa / LVMI: 4 weeks Ang II 1.1 mg/kg/d with or without SS-31 3 mg/kg/d; for heart weight (normalized to tibia length): 4 weeks Ang II with or without SS-31, saline 5.3±0.18; for change in LV end diastolic diameter (LVEDD) / change in fractional shortening (FS, systolic function): in the presence or absence of SS-31
Protocol: as §1

[4] = system: ANP, Collagen 1a2, PGC1-α, TFAM, NRF-1, NRF-2; test: Quantitative PCR of cardiac gene expression after 4 weeks of Ang II; type: in vivo, mouse; conditions: for expression of PGC-1α and downstream target genes TFAM, NRF-1 and NRF-2: 4 weeks Ang II (vs. saline) or Ang II + SS-31 (vs. Ang II)
Protocol: as §1
(§2) Quantitative PCR. Gene expression was quantified by quantitative real time PCR using an Applied Biosystems 7900 themocycler with Taqman Gene Expression Assays on Demand, which included: PGC1-α (Mm00731216), TFAM (Mm00447485), NRF-1 (Mm00447996), NRF-2 (Mm00487471), Collagen 1a2 (Mm00483937), and ANP (Mm01255747). Expression assays were normalized to 18S RNA.

C57BL6 mice [5] = test: Quantitative pathology of ventricular fibrosis (Masson Trichrome) after 4 weeks of Ang II; type: in vivo, mouse
Protocol: as §1, with “As a reference for SS-31 peptide effect in Ang II treated mice, a genetic mouse model of Rosa-26 inducible-mCAT was included, in which mitochondrial catalase was overexpressed two weeks before Ang II treatment.” left out
Quantitative Pathology. […] Quantitative analysis of fibrosis was performed by measuring the percentage of blue-staining fibrotic tissue relative to the total cross-sectional area of the ventricles.

[6] = system: mitochondrial protein carbonyl groups; test: Cardiac mitochondrial protein carbonyl ELISA after 4 weeks of Ang II; type: in vivo, mouse; conditions: 4 weeks Ang II (vs. saline) or Ang II + SS-31 (vs. Ang II)
Protocol: as §1, with “treatment. […]” for “treatment.”

NADPH oxidase = NADPH oxidase activity in ventricular protein extract after 4 weeks of Ang II; type: in vivo, mouse; conditions: 4 weeks Ang II (vs. saline) or Ang II + SS-31 (vs. Ang II)
Protocol: as §1, with “An increase in MPI is an indication that a greater fraction of systole is spent to cope with the pressure changes during the isovolemic phases. As a reference for SS-31 peptide effect in Ang II treated mice, a genetic mouse model of Rosa-26 inducible-mCAT was included, in which mitochondrial catalase was overexpressed two weeks before Ang II treatment.” left out
NADPH Oxidase activity. […] In brief, […] of ventricular protein extract was incubated with dihydroethidium (DHE, 10 μM), sperm DNA (1.25 μg/ml), and NADPH (50 μM) in PBS/DTPA (containing 100 μM DTPA), The assay was incubated at 37° C. in the dark for 30 min and the fluorescence was detected using excitation/emission of 490/580 nm.

[7] = system: cleaved caspase-3, phospho-p38 MAP kinase, p38; test: Western immunoblots of cardiac protein extracts after 4 weeks of Ang II; type: in vivo, mouse; conditions: for phosphorylation of p38 MAPK: 4 weeks Ang II (vs. saline) or Ang II + SS-31 (vs. Ang II)
Protocol: as §1
Western Immunoblots. Cardiac protein extracts were prepared by homogenization in lysis buffer containing protease and phosphatase inhibitors on ice (1.5 mM KCl, 50 mM Tris HCl, 0.125% Sodium deoxycholate, 0.375% Triton X 100, 0.15% NP40, 3 mM EDTA). The samples were sonicated and centrifuged at 10,000 g for 15 min in 4° C. The supernatant was collected and the concentration was determined using a BCA assay (Pierce Thermo Scientific, Rockford, IL). Total protein (25 μg) was separated on NuPAGE 4-12% Bis-Tris gel (Invitrogen) and transferred to 0.45 μm PVDF membrane (Millipore), and then blocked in 5% non-fat dry milk in Tris-buffer solution with 0.1% Tween-20 for 1 hour. Primary antibodies were incubated overnight, and secondary antibodies were incubated for 1 hour. The primary antibodies included: rabbit monoclonal anti-cleaved caspase-3 (Cell Signaling), mouse monoclonal anti-GAPDH (Millipore), rabbit polyclonal phospho-p38 MAP kinase (Cell Signaling), and mouse monoclonal anti-p38 (Santa Cruz Biotechnology). The enhanced chemiluminescence method (Thermo Scientific) was used for detection. Image Quant ver.2.0 was used to quantified the relative band density as a ratio to GAPDH (internal control). All samples were normalized to the same cardiac protein sample.

Gαq overexpressing mice = test: Gαq overexpression-induced heart failure: echocardiography, organ weights, fibrosis, qPCR, protein carbonyls; type: in vivo, mouse
Protocol: as §1
Quantitative Pathology. Ventricular tissues were cut into transverse slices, and subsequently embedded with paraffin, sectioned, and subjected to Masson Trichrome staining. Quantitative analysis of fibrosis was performed by measuring the percentage of blue-staining fibrotic tissue relative to the total cross-sectional area of the ventricles.
Measurement of mitochondrial protein carbonyl groups. For mitochondrial protein extraction, ventricular tissues were homogenized in mitochondrial isolation buffer (1 mM EGTA, 10 mM HEPES, 250 mM sucrose, 10 mM Tris-HCl, pH 7.4). The lysates were centrifuged for 7 min at 800 g in 4° C. The supernatants were then centrifuged for 30 min at 4000 g in 4° C. The crude mitochondria pellets were resuspended in small volume of mitochondrial isolation buffer, sonicated on ice to disrupt the membrane, and treated with 1% streptomycin sulfate to precipitate mitochondrial nucleic acids. The OxiSelect™ Protein Carbonyl ELISA Kit (Cell Biolabs) was used to analyze 1 μg of protein sample per assay. The ELISA was performed according to the instruction manual, with slight modification. Briefly, protein samples were reacted with dinitrophenylhydrazine (DNPH) and probed with anti-DNPH antibody, followed by HRP conjugated secondary antibody. The anti-DNPH antibody and HRP conjugated secondary antibody concentrations were 1:2500 and 1:4000, respectively.
as §2

[8] = Ang+SS-31 (3 mg/kg/d) vs. Ang, 4 weeks
[9] = SS-31 3 mg/kg/d with Ang II, 4 weeks
[10] = Gαq mice, SS-31 3 mg/kg/d for 4 weeks
[11] = Ang II 1.1 mg/kg/d subcutaneous pump, FIG. 2B

## 2′,6′-Dmt-D-Arg-Phe-Lys-NH2 [SS-02]
[1]
  penetration of the plasma membrane: readily penetrates the plasma membrane

## F[dR]FK-NH2 [SS-20]
mu-opioid receptor
  mu-opioid receptor agonist activity: does not have mu-opioid receptor agonist activity

## D-Arg-2′,6′-Dmt-Lys-Phe-NH2 [SS-31]
Neonatal cardiomyocytes
  effect on Ang II-induced Mitosox fluorescence / mitochondrial ROS: reduced Ang II-induced mitosox fluorescence to the level similar to that of saline treated cardiomyocytes
C57BL6 mice [2]; SS-31 3 mg/kg/d simultaneously with Ang II 1.1 mg/kg/d
  effect on blood pressure: did not show any effect
C57BL6 mice [3]
  Ea/Aa: 1.17±0.11
  LVMI: 4.21 ± 0.17 mg/g
  heart weight (normalized to tibia length): 6.05±0.135 mg/mm
C57BL6 mice [3]; 4 weeks of Ang II
  change in LV end diastolic diameter (LVEDD): not significantly changed
  change in fractional shortening (FS, systolic function): not significantly changed
C57BL6 mice [3]; [8]
  better preservation of Ea/Aa: 38%
  reduction of LVMI: 33%
[4]
  expression of PGC-1α and downstream target genes TFAM, NRF-1 and NRF-2: fully prevent the upregulation
[4]; [9]
  effect on Ang II-induced ANP gene expression: almost completely protected
  effect on Ang II-induced Coll1a2 gene expression: almost fully attenuated
C57BL6 mice [5]; [9]
  effect on Ang II-induced ventricular fibrosis: fully attenuated
[6]
  ventricular mitochondrial protein carbonyl content: significantly reduced
NADPH oxidase
  cardiac NADPH oxidase activity: not changed
[7]
  phosphorylation of p38 MAPK: significantly and nearly fully attenuated
[7]; [9]
  effect on activation of caspase-3 caused by Ang II: completely prevented
Gαq overexpressing mice; Gαq mice at 16 weeks of age, SS-31 3 mg/kg/d for 4 weeks
  cardiac enlargement (normalized heart weight): substantially reduced
Gαq overexpressing mice; Gαq mice at 16 weeks of age, SS-31 3 mg/kg/d for 4 weeks, borderline significance p=0.09
  increase in lung weights (lung congestion): slightly attenuated
Gαq overexpressing mice; Gαq mice, 4 weeks of SS-31 treatment
  cardiac expression of Coll1a2 gene: not significantly altered
Gαq overexpressing mice; [10]
  Gαq overexpression-induced heart failure (phenotype overall): partially rescued
  cardiac mitochondrial protein carbonyls: significant reduction
  ventricular fibrosis: not changed
Gαq overexpressing mice; Gαq mice, SS-31 3 mg/kg/d from 12 to 16 weeks of age
  myocardial performance (MPI): improved
Gαq overexpressing mice; Gαq mice, SS-31 3 mg/kg/d from 12 to 16 weeks of age, vs. untreated Gαq
  systolic function (FS): significantly ameliorated
Gαq overexpressing mice; Gαq mice, SS-31 3 mg/kg/d from 12 to 16 weeks of age, borderline significance p=0.06
  Ea/Aa (diastolic function): better preserved
Gαq overexpressing mice; Gαq mice, SS-31 3 mg/kg/d from 12 to 16 weeks of age, p=0.08
  LV chamber enlargement: slightly reduced
mu-opioid receptor
  mu-opioid receptor agonist activity: does not have mu-opioid receptor agonist activity

## CC(=O)N[C@@H](CS)C(=O)O [N-acetyl cysteine]
Neonatal cardiomyocytes
  effect on Ang II-induced Mitosox fluorescence / mitochondrial ROS: did not show any effect

## Tyr-D-Arg-Phe-Lys-NH2 [SS-01]
mu-opioid receptor
  mu-opioid receptor agonist activity: has mu-opioid receptor agonist activity

## Angiotensin II [Ang II]
Neonatal cardiomyocytes; Ang II 1 μM, 3 hours, neonatal cardiomyocytes
  increase of Mitosox fluorescence (indicator of mitochondrial superoxide): approximately 2 fold
C57BL6 mice [2]; Ang II 1.1 mg/kg/d
  increase in systolic and diastolic blood pressure above baseline: 25-28 mm Hg
C57BL6 mice [2]; [11]
  increase in diastolic pressure: 24.8 mm Hg
  increase in systolic blood pressure: 27.2 mm Hg
C57BL6 mice [2]; Ang II 1.1 mg/kg/d, baseline 94.5±3.5
  diastolic blood pressure after Ang II: 119.3±4.0 mm Hg
C57BL6 mice [3]
  Ea/Aa: 0.723±0.15
  LVMI: 6.32 ± 0.39 mg/g
  heart weight (normalized to tibia length): 7.69±0.20 mg/mm
C57BL6 mice [3]; 4 weeks of Ang II
  increase in heart weights above saline treated control hearts: 45%
  change in LV end diastolic diameter (LVEDD): no change
  change in fractional shortening (FS, systolic function): no change
C57BL6 mice [3]; 4 weeks of Ang II 1.1 mg/kg/d
  decline in Ea/Aa (diastolic function): ~35%
  increase in left ventricular mass index (LVMI) compared with baseline: approximately 2 fold
[4]
  expression of PGC-1α and downstream target genes TFAM, NRF-1 and NRF-2: induced the expression
[4]; 4 weeks of Ang II
  increase in ANP gene expression: ~15 fold
  increase in Coll1a2 gene expression: ~2.5 fold
C57BL6 mice [5]; 4 weeks of Ang II
  increase in ventricular fibrosis (blue staining on trichrome): greater than 3 fold
[6]
  ventricular mitochondrial protein carbonyl content: significantly increased
NADPH oxidase
  cardiac NADPH oxidase activity: significantly increased
[7]
  phosphorylation of p38 MAPK: increased
[7]; 4 weeks of Ang II
  increase in cleaved (activated) caspase-3 in left ventricular tissue: approximately 3 fold
[7]; 4 weeks of Ang II, FIG. 6C
  protein levels of p38 MAP kinase: increased
